Target: Aβ42 (Homo sapiens, UniProt P05067)
Experiment: Th-T (thioflavin-T) assay of Aβ42 aggregation
Type: biochemical
Conditions: for Th-T fluorescence, mean of three wells: Aβ42 aggregation time course

Sequence of Aβ42 (P05067 672-713): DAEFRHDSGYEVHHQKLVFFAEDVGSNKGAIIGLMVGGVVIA

C=C1CC[C@@H]2[C@](C)(CC[C@H]3O[C@H](C=C(C)C)C[C@@]23C)[C@@H]1Cc1c(OC)oc(CO)c(C(=O)OC)c1=O [Compound 21]
first Th-T assay result (Aβ42 (10 μM) ± DPPs (20 μM), room temperature): clearly delayed nuclei formation of Aβ42 | Th-T fluorescence, mean of three wells (reading M117): 1.039 | Th-T fluorescence, mean of three wells (reading M118): 1.038 | Th-T fluorescence, mean of three wells (reading M119): 1.047 | Th-T fluorescence, mean of three wells (reading M120): 1.046 | Th-T fluorescence, mean of three wells (reading M121): 1.028 | Th-T fluorescence, mean of three wells (reading M122): 1.042 | Th-T fluorescence, mean of three wells (reading M123): 1.04 | Th-T fluorescence, mean of three wells (reading M124): 1.043 | Th-T fluorescence, mean of three wells (reading M125): 1.031 | Th-T fluorescence, mean of three wells (reading M126): 1.048 | Th-T fluorescence, mean of three wells (reading M127): 1.027 | Th-T fluorescence, mean of three wells (reading M128): 1.04 | Th-T fluorescence, mean of three wells (reading M129): 1.041 | Th-T fluorescence, mean of three wells (reading M130): 1.048 | nucleation phase of Aβ42 delayed until (Th-T fluorescence of Aβ42 alone began to increase after 4 h): 13 h | Th-T fluorescence, mean of three wells (Fig. 7a) (column suffix _10, measurement M19): 0.2262 | Th-T fluorescence, mean of three wells (Fig. 7a) (column suffix _10, measurement M20): 0.2276 | Th-T fluorescence, mean of three wells (Fig. 7a) (column suffix _10, measurement M21): 0.2311 | Th-T fluorescence, mean of three wells (Fig. 7a) (column suffix _10, measurement M22): 0.2318 | Th-T fluorescence, mean of three wells (Fig. 7a) (column suffix _10, measurement M23): 0.2319 | Th-T fluorescence, mean of three wells (Fig. 7a) (column suffix _10, measurement M24): 0.2323 | Th-T fluorescence, mean of three wells (Fig. 7a) (column suffix _10, measurement M25): 0.2332 | Th-T fluorescence, mean of three wells (Fig. 7a) (column suffix _10, measurement M26): 0.2371 | Th-T fluorescence, mean of three wells (Fig. 7a) (column suffix _10, measurement M27): 0.238 | Th-T fluorescence, mean of three wells (Fig. 7a) (column suffix _10, measurement M28): 0.2386 | Th-T fluorescence, mean of three wells (Fig. 7a) (column suffix _10, measurement M29): 0.2373 | Th-T fluorescence, mean of three wells (Fig. 7a) (column suffix _10, measurement M30): 0.2428 | Th-T assay signal, mean of three wells (Fig. 7a) (column suffix _10, reading M1): 0.2407 | Th-T assay signal, mean of three wells (Fig. 7a) (column suffix _10, reading M2): 0.2463 | Th-T assay signal, mean of three wells (Fig. 7a) (column suffix _10, reading M3): 0.2449 | Th-T assay signal, mean of three wells (Fig. 7a) (column suffix _10, reading M4): 0.2384 | Th-T assay signal, mean of three wells (Fig. 7a) (column suffix _10, reading M5): 0.2363 | Th-T assay signal, mean of three wells (Fig. 7a) (column suffix _10, reading M6): 0.2279 | Th-T assay signal, mean of three wells (Fig. 7a) (column suffix _10, reading M7): 0.2237 | Th-T assay signal, mean of three wells (Fig. 7a) (column suffix _10, reading M8): 0.2225 | Th-T assay signal, mean of three wells (Fig. 7a) (column suffix _10, reading M9): 0.2211 | Th-T assay signal, mean of three wells (Fig. 7a) (column suffix _10, reading M10): 0.2184 | Th-T assay signal, mean of three wells (Fig. 7a) (column suffix _10, reading M11): 0.2174 | Th-T assay signal, mean of three wells (Fig. 7a) (column suffix _10, reading M12): 0.2206 | Th-T assay signal, mean of three wells (Fig. 7a) (column suffix _10, reading M13): 0.2193 | Th-T assay signal, mean of three wells (Fig. 7a) (column suffix _10, reading M14): 0.2201 | Th-T assay signal, mean of three wells (Fig. 7a) (column suffix _10, reading M15): 0.222 | Th-T assay signal, mean of three wells (Fig. 7a) (column suffix _10, reading M16): 0.2237 | Th-T assay signal, mean of three wells (Fig. 7a) (column suffix _10, reading M17): 0.228 | Th-T assay signal, mean of three wells (Fig. 7a) (column suffix _10, reading M18): 0.2253 | Fig. 7a Th-T reading, mean of three wells (column suffix _10, reading M85): 1.478 | Fig. 7a Th-T reading, mean of three wells (column suffix _10, reading M86): 1.509 | Fig. 7a Th-T reading, mean of three wells (column suffix _10, reading M87): 1.557 | Fig. 7a Th-T reading, mean of three wells (column suffix _10, reading M88): 1.549 | Fig. 7a Th-T reading, mean of three wells (column suffix _10, reading M89): 1.5658 | Fig. 7a Th-T reading, mean of three wells (column suffix _10, reading M90): 1.591 | Fig. 7a Th-T reading, mean of three wells (column suffix _10, reading M91): 1.5663 | Fig. 7a Th-T reading, mean of three wells (column suffix _10, reading M92): 1.592 | Fig. 7a Th-T reading, mean of three wells (column suffix _10, reading M93): 1.631 | Fig. 7a Th-T reading, mean of three wells (column suffix _10, reading M94): 1.598 | Fig. 7a Th-T reading, mean of three wells (column suffix _10, reading M95): 1.661 | Fig. 7a Th-T reading, mean of three wells (column suffix _10, reading M96): 1.586 | Fig. 7a Th-T reading, mean of three wells (column suffix _10, reading M97): 1.595 | Fig. 7a Th-T reading, mean of three wells (column suffix _10, reading M98): 1.638 | Fig. 7a Th-T reading, mean of three wells (column suffix _10, reading M99): 1.631 | Fig. 7a Th-T reading, mean of three wells (column suffix _10, reading M100): 1.623 | Fig. 7a Th-T reading, mean of three wells (column suffix _10, reading M101): 1.644 | Fig. 7a Th-T reading, mean of three wells (column suffix _10, reading M102): 1.607 | Fig. 7a Th-T reading, mean of three wells (column suffix _10, reading M103): 1.621 | Fig. 7a Th-T reading, mean of three wells (column suffix _10, reading M104): 1.621 | Fig. 7a Th-T reading, mean of three wells (column suffix _10, reading M105): 1.667 | Fig. 7a Th-T reading, mean of three wells (column suffix _10, reading M106): 1.671 | Th-T fluorescence, mean of three wells (Fig. 7a) (column suffix _20, measurement M19): 0.1942 | Th-T fluorescence, mean of three wells (Fig. 7a) (column suffix _20, measurement M20): 0.198 | Th-T fluorescence, mean of three wells (Fig. 7a) (column suffix _20, measurement M21): 0.1975 | Th-T fluorescence, mean of three wells (Fig. 7a) (column suffix _20, measurement M22): 0.1979 | Th-T fluorescence, mean of three wells (Fig. 7a) (column suffix _20, measurement M23): 0.1984 | Th-T fluorescence, mean of three wells (Fig. 7a) (column suffix _20, measurement M24): 0.2012 | Th-T fluorescence, mean of three wells (Fig. 7a) (column suffix _20, measurement M25): 0.2016 | Th-T fluorescence, mean of three wells (Fig. 7a) (column suffix _20, measurement M26): 0.2021 | Th-T fluorescence, mean of three wells (Fig. 7a) (column suffix _20, measurement M27): 0.2014 | Th-T fluorescence, mean of three wells (Fig. 7a) (column suffix _20, measurement M28): 0.2017 | Th-T fluorescence, mean of three wells (Fig. 7a) (column suffix _20, measurement M29): 0.2027 | Th-T assay signal, mean of three wells (Fig. 7a) (column suffix _20, reading M1): 0.2262 | Th-T assay signal, mean of three wells (Fig. 7a) (column suffix _20, reading M2): 0.223 | Th-T assay signal, mean of three wells (Fig. 7a) (column suffix _20, reading M3): 0.2155 | Th-T assay signal, mean of three wells (Fig. 7a) (column suffix _20, reading M4): 0.2051 | Th-T assay signal, mean of three wells (Fig. 7a) (column suffix _20, reading M5): 0.2019 | Th-T assay signal, mean of three wells (Fig. 7a) (column suffix _20, reading M6): 0.1953 | Th-T assay signal, mean of three wells (Fig. 7a) (column suffix _20, reading M7): 0.1945 | Th-T assay signal, mean of three wells (Fig. 7a) (column suffix _20, reading M8): 0.1954 | Th-T assay signal, mean of three wells (Fig. 7a) (column suffix _20, reading M9): 0.1943 | Th-T assay signal, mean of three wells (Fig. 7a) (column suffix _20, reading M10): 0.1989 | Th-T assay signal, mean of three wells (Fig. 7a) (column suffix _20, reading M11): 0.1963 | Th-T assay signal, mean of three wells (Fig. 7a) (column suffix _20, reading M12): 0.198 | Th-T assay signal, mean of three wells (Fig. 7a) (column suffix _20, reading M13): 0.1957 | Th-T assay signal, mean of three wells (Fig. 7a) (column suffix _20, reading M14): 0.1953 | Th-T assay signal, mean of three wells (Fig. 7a) (column suffix _20, reading M15): 0.1958 | Th-T assay signal, mean of three wells (Fig. 7a) (column suffix _20, reading M16): 0.1968 | Th-T assay signal, mean of three wells (Fig. 7a) (column suffix _20, reading M17): 0.1967 | Th-T assay signal, mean of three wells (Fig. 7a) (column suffix _20, reading M18): 0.1963 | Fig. 7a Th-T reading, mean of three wells (column suffix _20, reading M85): 0.5666 | Fig. 7a Th-T reading, mean of three wells (column suffix _20, reading M86): 0.5976 | Fig. 7a Th-T reading, mean of three wells (column suffix _20, reading M87): 0.6445 | Fig. 7a Th-T reading, mean of three wells (column suffix _20, reading M88): 0.6876 | Fig. 7a Th-T reading, mean of three wells (column suffix _20, reading M89): 0.7312 | Fig. 7a Th-T reading, mean of three wells (column suffix _20, reading M90): 0.7695 | Fig. 7a Th-T reading, mean of three wells (column suffix _20, reading M91): 0.7994 | Fig. 7a Th-T reading, mean of three wells (column suffix _20, reading M92): 0.8356 | Fig. 7a Th-T reading, mean of three wells (column suffix _20, reading M93): 0.8329 | Fig. 7a Th-T reading, mean of three wells (column suffix _20, reading M94): 0.8638 | Fig. 7a Th-T reading, mean of three wells (column suffix _20, reading M95): 0.8786 | Fig. 7a Th-T reading, mean of three wells (column suffix _20, reading M96): 0.9004 | Fig. 7a Th-T reading, mean of three wells (column suffix _20, reading M97): 0.8843 | Fig. 7a Th-T reading, mean of three wells (column suffix _20, reading M98): 0.903 | Fig. 7a Th-T reading, mean of three wells (column suffix _20, reading M99): 0.9153 | Fig. 7a Th-T reading, mean of three wells (column suffix _20, reading M100): 0.9048
